Results published in PubChem BioAssay (NCI).
Several values for one entry are separate records, joined by “and”; a condition that tells them apart may be missing. Identical values can stand only once.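 All cell lines were grown in 96-well plates and treated with compound for 48 hours. At the GI50, growth is halved. TGI is the concentration that stops growth completely.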

Each compound was assayed on OVCAR-8 ovarian (assay: NCI tumour cell line growth inhibition, 48 h).

SMILES	GI50	TGI
NC(=NCCCOc1ccc(Cl)cc1)Nc1ccc(C(F)(F)F)cc1	2.18 µM	6.05 µM

The compounds below were run on NCI-H23 lung (assay: NCI tumour cell line growth inhibition, 48 h).

SMILES	GI50	TGI
C#Cc1cccc(Nc2ncnc3cc(OC)c(OCCCCCCC(=O)NO)cc23)c1	0.383 µM	2.57 µM
CSc1nc2c(nc(C)c(=O)n2C2OCC(OC(C)=O)C(OC(C)=O)C2OC(C)=O)c(=O)[nH]1 (stereo not given)	–	> 100 µM
O=c1n(CC2CO2)c(=O)n(CC2CO2)c(=O)n1CC1CO1 (stereo not given)	14.2 µM and 7.3 µM	90.9 µM and > 100 µM
Cc1ccc(C(SCC(N)C(=O)O)(c2ccccc2)c2ccc(C)cc2)cc1 (stereo not given)	0.423 µM	23.7 µM
COc1cc(Nc2cn[nH]c2-c2ccc(Cl)cc2)cc(OC)c1OC	8.33 µM	> 60.8 µM
O=C(c1ccccc1)c1cc(Cl)ccc1OCCCCN1CCN(CCCCOc2ccc(Cl)cc2C(=O)c2ccccc2)CC1	4.73 µM	18.3 µM
O=C1NC(=Nc2ccccc2)S/C1=C\c1ccc2ncccc2c1	5.89 µM	> 25 µM
Oc1ccc(Cl)cc1Cc1cc(Cl)cc(Cl)c1O	3.32 µM	10.6 µM
COc1ccc(N2C(=O)C(c3ccccc3)(c3ccccc3)C23C(=O)N(C)c2ccccc23)cc1 (stereo not given)	> 100 µM	> 100 µM
COc1ccc(C2S/C(=C\c3ccccc3O)C(=O)N2NC(=O)Cc2ccccc2)cc1 (stereo not given)	–	> 100 µM
CC1OC(n2cc(F)c(=O)[nH]c2=O)C=CC1O (stereo not given)	–	> 100 µM
C/C(=C\CCc1ccoc1)CC/C=C(\C)CCCC1=CC(=O)OC1	4.74 µM	29.6 µM
C=C(C=O)[C@@H]1C2OC(=O)C(=C)[C@@H]2CC(O)[C@@]1(C)CC (stereo not given in full)	–	13.3 µM
C=C(CCCCC)CN1CCCC1[C@@](C)(O)CC(=O)OCC (stereo not given in full)	–	> 100 µM
O=c1c2ccccc2[se]n1-c1cccnc1	–	53.2 µM
NC(=NCCCOc1ccc(Cl)cc1)Nc1ccc(C(F)(F)F)cc1	2.06 µM	5.54 µM

What follows are compounds tested on SK-MEL-2 melanoma (assay: NCI tumour cell line growth inhibition, 48 h).

SMILES	GI50	TGI
C#Cc1cccc(Nc2ncnc3cc(OC)c(OCCCCCCC(=O)NO)cc23)c1	0.309 µM	1.85 µM
CSc1nc2c(nc(C)c(=O)n2C2OCC(OC(C)=O)C(OC(C)=O)C2OC(C)=O)c(=O)[nH]1 (stereo not given)	–	> 100 µM
O=c1n(CC2CO2)c(=O)n(CC2CO2)c(=O)n1CC1CO1 (stereo not given)	36.9 µM and 33 µM	215 µM and > 100 µM
Cc1ccc(C(SCC(N)C(=O)O)(c2ccccc2)c2ccc(C)cc2)cc1 (stereo not given)	0.219 µM	3.88 µM
COc1cc(Nc2cn[nH]c2-c2ccc(Cl)cc2)cc(OC)c1OC	6.82 µM	41.5 µM
O=C(c1ccccc1)c1cc(Cl)ccc1OCCCCN1CCN(CCCCOc2ccc(Cl)cc2C(=O)c2ccccc2)CC1	2.58 µM	4.92 µM
O=C1NC(=Nc2ccccc2)S/C1=C\c1ccc2ncccc2c1	> 17.9 µM	> 25 µM
Oc1ccc(Cl)cc1Cc1cc(Cl)cc(Cl)c1O	5.53 µM	29 µM
COc1ccc(N2C(=O)C(c3ccccc3)(c3ccccc3)C23C(=O)N(C)c2ccccc23)cc1 (stereo not given)	> 100 µM	> 100 µM
COc1ccc(C2S/C(=C\c3ccccc3O)C(=O)N2NC(=O)Cc2ccccc2)cc1 (stereo not given)	–	> 100 µM
CC1OC(n2cc(F)c(=O)[nH]c2=O)C=CC1O (stereo not given)	–	> 100 µM
C/C(=C\CCc1ccoc1)CC/C=C(\C)CCCC1=CC(=O)OC1	9.35 µM	22.6 µM
C=C(C=O)[C@@H]1C2OC(=O)C(=C)[C@@H]2CC(O)[C@@]1(C)CC (stereo not given in full)	–	21.7 µM
C=C(CCCCC)CN1CCCC1[C@@](C)(O)CC(=O)OCC (stereo not given in full)	–	> 100 µM
O=c1c2ccccc2[se]n1-c1cccnc1	–	47.9 µM
NC(=NCCCOc1ccc(Cl)cc1)Nc1ccc(C(F)(F)F)cc1	1.87 µM	3.88 µM

The compounds below were run on SNB-75 CNS (assay: NCI tumour cell line growth inhibition, 48 h).

SMILES	GI50	TGI
C#Cc1cccc(Nc2ncnc3cc(OC)c(OCCCCCCC(=O)NO)cc23)c1	0.0267 µM	0.468 µM
CSc1nc2c(nc(C)c(=O)n2C2OCC(OC(C)=O)C(OC(C)=O)C2OC(C)=O)c(=O)[nH]1 (stereo not given)	–	> 100 µM
O=c1n(CC2CO2)c(=O)n(CC2CO2)c(=O)n1CC1CO1 (stereo not given)	6.8 µM and 21.1 µM	89.8 µM and > 100 µM
Cc1ccc(C(SCC(N)C(=O)O)(c2ccccc2)c2ccc(C)cc2)cc1 (stereo not given)	0.334 µM	17.7 µM
COc1cc(Nc2cn[nH]c2-c2ccc(Cl)cc2)cc(OC)c1OC	1.14 µM	7.66 µM
O=C(c1ccccc1)c1cc(Cl)ccc1OCCCCN1CCN(CCCCOc2ccc(Cl)cc2C(=O)c2ccccc2)CC1	6.98 µM	24.9 µM
O=C1NC(=Nc2ccccc2)S/C1=C\c1ccc2ncccc2c1	–	> 25 µM
Oc1ccc(Cl)cc1Cc1cc(Cl)cc(Cl)c1O	5.14 µM	40.8 µM
COc1ccc(N2C(=O)C(c3ccccc3)(c3ccccc3)C23C(=O)N(C)c2ccccc23)cc1 (stereo not given)	89.1 µM	> 100 µM
COc1ccc(C2S/C(=C\c3ccccc3O)C(=O)N2NC(=O)Cc2ccccc2)cc1 (stereo not given)	–	> 100 µM
CC1OC(n2cc(F)c(=O)[nH]c2=O)C=CC1O (stereo not given)	–	> 100 µM
C/C(=C\CCc1ccoc1)CC/C=C(\C)CCCC1=CC(=O)OC1	4.46 µM	52 µM
C=C(C=O)[C@@H]1C2OC(=O)C(=C)[C@@H]2CC(O)[C@@]1(C)CC (stereo not given in full)	–	> 100 µM
C=C(CCCCC)CN1CCCC1[C@@](C)(O)CC(=O)OCC (stereo not given in full)	–	> 100 µM
O=c1c2ccccc2[se]n1-c1cccnc1	–	43.8 µM
NC(=NCCCOc1ccc(Cl)cc1)Nc1ccc(C(F)(F)F)cc1	0.914 µM	7.67 µM

What follows are compounds tested on SR leukemia (assay: NCI tumour cell line growth inhibition, 48 h).

SMILES	GI50	TGI
C#Cc1cccc(Nc2ncnc3cc(OC)c(OCCCCCCC(=O)NO)cc23)c1	0.0219 µM	2.09 µM
CSc1nc2c(nc(C)c(=O)n2C2OCC(OC(C)=O)C(OC(C)=O)C2OC(C)=O)c(=O)[nH]1 (stereo not given)	–	> 100 µM
O=c1n(CC2CO2)c(=O)n(CC2CO2)c(=O)n1CC1CO1 (stereo not given)	13.2 µM and 1.5 µM	877 µM and > 100 µM
Cc1ccc(C(SCC(N)C(=O)O)(c2ccccc2)c2ccc(C)cc2)cc1 (stereo not given)	0.204 µM	4.33 µM
COc1cc(Nc2cn[nH]c2-c2ccc(Cl)cc2)cc(OC)c1OC	2.23 µM	42.2 µM
O=C(c1ccccc1)c1cc(Cl)ccc1OCCCCN1CCN(CCCCOc2ccc(Cl)cc2C(=O)c2ccccc2)CC1	1.83 µM	4.89 µM
O=C1NC(=Nc2ccccc2)S/C1=C\c1ccc2ncccc2c1	0.64 µM	> 25 µM
Oc1ccc(Cl)cc1Cc1cc(Cl)cc(Cl)c1O	5.02 µM	27.4 µM
COc1ccc(N2C(=O)C(c3ccccc3)(c3ccccc3)C23C(=O)N(C)c2ccccc23)cc1 (stereo not given)	> 100 µM	> 100 µM
COc1ccc(C2S/C(=C\c3ccccc3O)C(=O)N2NC(=O)Cc2ccccc2)cc1 (stereo not given)	–	> 100 µM
CC1OC(n2cc(F)c(=O)[nH]c2=O)C=CC1O (stereo not given)	–	> 100 µM
C/C(=C\CCc1ccoc1)CC/C=C(\C)CCCC1=CC(=O)OC1	3.45 µM	17.1 µM
C=C(C=O)[C@@H]1C2OC(=O)C(=C)[C@@H]2CC(O)[C@@]1(C)CC (stereo not given in full)	–	12.3 µM
C=C(CCCCC)CN1CCCC1[C@@](C)(O)CC(=O)OCC (stereo not given in full)	–	> 100 µM
O=c1c2ccccc2[se]n1-c1cccnc1	–	> 100 µM
NC(=NCCCOc1ccc(Cl)cc1)Nc1ccc(C(F)(F)F)cc1	1.77 µM	5.95 µM

The compounds below were run on RPMI-8226 leukemia (assay: NCI tumour cell line growth inhibition, 48 h).

SMILES	GI50	TGI
C#Cc1cccc(Nc2ncnc3cc(OC)c(OCCCCCCC(=O)NO)cc23)c1	0.302 µM	1.78 µM
CSc1nc2c(nc(C)c(=O)n2C2OCC(OC(C)=O)C(OC(C)=O)C2OC(C)=O)c(=O)[nH]1 (stereo not given)	–	> 100 µM
O=c1n(CC2CO2)c(=O)n(CC2CO2)c(=O)n1CC1CO1 (stereo not given)	28.4 µM and 17.6 µM	399 µM and > 100 µM
Cc1ccc(C(SCC(N)C(=O)O)(c2ccccc2)c2ccc(C)cc2)cc1 (stereo not given)	0.135 µM	20.6 µM
COc1cc(Nc2cn[nH]c2-c2ccc(Cl)cc2)cc(OC)c1OC	2.48 µM	12.3 µM
O=C(c1ccccc1)c1cc(Cl)ccc1OCCCCN1CCN(CCCCOc2ccc(Cl)cc2C(=O)c2ccccc2)CC1	1.16 µM	2.8 µM
O=C1NC(=Nc2ccccc2)S/C1=C\c1ccc2ncccc2c1	–	> 25 µM
Oc1ccc(Cl)cc1Cc1cc(Cl)cc(Cl)c1O	3.09 µM	11.9 µM
COc1ccc(N2C(=O)C(c3ccccc3)(c3ccccc3)C23C(=O)N(C)c2ccccc23)cc1 (stereo not given)	> 100 µM	> 100 µM
COc1ccc(C2S/C(=C\c3ccccc3O)C(=O)N2NC(=O)Cc2ccccc2)cc1 (stereo not given)	–	> 100 µM
CC1OC(n2cc(F)c(=O)[nH]c2=O)C=CC1O (stereo not given)	–	> 100 µM
C/C(=C\CCc1ccoc1)CC/C=C(\C)CCCC1=CC(=O)OC1	2.85 µM	16.7 µM
C=C(C=O)[C@@H]1C2OC(=O)C(=C)[C@@H]2CC(O)[C@@]1(C)CC (stereo not given in full)	–	10 µM
C=C(CCCCC)CN1CCCC1[C@@](C)(O)CC(=O)OCC (stereo not given in full)	–	> 100 µM
O=c1c2ccccc2[se]n1-c1cccnc1	–	86.9 µM
NC(=NCCCOc1ccc(Cl)cc1)Nc1ccc(C(F)(F)F)cc1	1.75 µM	4.32 µM
